Assay results reported in patent US20210353593A1 (Chinook Therapeutics, Inc., priority 2019, published 2021).
pIC50: −log10 of the molar value.

What was measured:
[1] = tested on: IL-6 production in primary human mesangial cells; test: ET-1 induced IL-6 production (ELISA) in primary human renal mesangial cells; assay type: cell-based; details: 72 hours; 10 ng/mL ET-1; read-out: IC50, ET-1 stimulated IL-6 production in HRMCs
[2] = tested on: canonical signaling pathways in kidney tissue of g-ddY mice; test: Ingenuity Pathway Analysis (IPA) canonical pathways, g-ddY mouse kidney RNA-seq; assay type: in vivo

CCCCN(CCCC)C(=O)CN1C[C@H](c2ccc3c(c2)OCO3)[C@@H](C(=O)O)[C@@H]1c1ccc(OC)cc1 [Atrasentan, (2R,3R,4S)-4-(1,3-benzodioxol-5-yl)-1-[2-(dibutylamino)-2-oxoethyl]-2-(4-methoxyphenyl)pyrrolidine-3-carboxylic acid]
pIC50 [1]: 9.19 | Acute Myeloid Leukemia Signaling z-score ([2]; 10 mg/kg/day): −0.258 | Acute Phase Response Signaling z-score ([2]; 10 mg/kg/day): −1.177 | Apelin Cardiac Fibroblast Signaling Pathway z-score ([2]; 10 mg/kg/day): 1.134 | CXCR4 Signaling z-score ([2]; 10 mg/kg/day): 0 | Cardiac Hypertrophy Signaling (Enhanced) z-score ([2]; 10 mg/kg/day): 0.361 | Folate Polyglutamylation z-score ([2]; 10 mg/kg/day): −1 | GM-CSF Signaling z-score ([2]; 10 mg/kg/day): −0.243 | GP6 Signaling Pathway z-score ([2]; 10 mg/kg/day): 0 | Glioblastoma Multiforme Signaling z-score ([2]; 10 mg/kg/day): 1 | Glioma Signaling z-score ([2]; 10 mg/kg/day): 0.5 | Gluconeogenesis I z-score ([2]; 10 mg/kg/day): 0.905 | Glutathione Redox Reactions I z-score ([2]; 10 mg/kg/day): −0.302 | Glycolysis I z-score ([2]; 10 mg/kg/day): 0.577 | Gα12/13 Signaling z-score ([2]; 10 mg/kg/day): −1.279 | Gαg Signaling z-score ([2]; 10 mg/kg/day): 1 | HGF Signaling z-score ([2]; 10 mg/kg/day): −0.688 | Hepatic Fibrosis Signaling Pathway z-score ([2]; 10 mg/kg/day): −0.25 | IGF-1 Signaling z-score ([2]; 10 mg/kg/day): 0.243 | IL-8 Signaling z-score ([2]; 10 mg/kg/day): 0.365 | Integrin Signaling z-score ([2]; 10 mg/kg/day): −0.928 | LPS/IL-1 Mediated Inhibition of RXR Function z-score ([2]; 10 mg/kg/day): 0.535 | Lymphotoxin β Receptor Signaling z-score ([2]; 10 mg/kg/day): −1.508 | Macropinocytosis Signaling z-score ([2]; 10 mg/kg/day): 0.277 | NF-κB Activation by Viruses z-score ([2]; 10 mg/kg/day): 0 | NF-κB Signaling z-score ([2]; 10 mg/kg/day): 0.507 | NRF2-mediated Oxidative Stress Response z-score ([2]; 10 mg/kg/day): 0.471 | Oxidative Phosphorylation z-score ([2]; 10 mg/kg/day): −0.309 | PDGF Signaling z-score ([2]; 10 mg/kg/day): −0.5 | PEDF Signaling z-score ([2]; 10 mg/kg/day): 0 | PI3K Signaling in B Lymphocytes z-score ([2]; 10 mg/kg/day): 0.426 | PI3K/AKT Signaling z-score ([2]; 10 mg/kg/day): 0.447 | PTEN Signaling z-score ([2]; 10 mg/kg/day): −0.426 | Paxillin Signaling z-score ([2]; 10 mg/kg/day): −1 | Relaxin Signaling z-score ([2]; 10 mg/kg/day): −0.535 | STAT3 Pathway z-score ([2]; 10 mg/kg/day): −0.218 | Sirtuin Signaling Pathway z-score ([2]; 10 mg/kg/day): 0.849 | Small Cell Lung Cancer Signaling z-score ([2]; 10 mg/kg/day): −0.905 | Sperm Motility z-score ([2]; 10 mg/kg/day): 1.213 | Sphingosine-1-phosphate Signaling z-score ([2]; 10 mg/kg/day): −0.218 | TCA Cycle II (Eukalyotic) z-score ([2]; 10 mg/kg/day): 0.277 | TNFR2 Signaling z-score ([2]; 10 mg/kg/day): −1.89 | Thrombin Signaling z-score ([2]; 10 mg/kg/day): 1.3 | Toll-like Receptor Signaling z-score ([2]; 10 mg/kg/day): −0.302 | Tryptophan Degradation III (Eukalyotic) z-score ([2]; 10 mg/kg/day): 0.378 | Xenobiotic Metabolism General Signaling Pathway z-score ([2]; 10 mg/kg/day): −0.577 | Acute Myeloid Leukemia Signaling z-score ([2]; 20 mg/kg/day): −0.853 | Acute Phase Response Signaling z-score ([2]; 20 mg/kg/day): −1.298 | Apelin Cardiac Fibroblast Signaling Pathway z-score ([2]; 20 mg/kg/day): 0.577 | CXCR4 Signaling z-score ([2]; 20 mg/kg/day): 0.333 | Cardiac Hypertrophy Signaling (Enhanced) z-score ([2]; 20 mg/kg/day): −0.396 | Folate Polyglutamylation z-score ([2]; 20 mg/kg/day): 0.447 | GM-CSF Signaling z-score ([2]; 20 mg/kg/day): −1.46 | GP6 Signaling Pathway z-score ([2]; 20 mg/kg/day): −1.715 | Glioblastoma Multiforme Signaling z-score ([2]; 20 mg/kg/day): −0.16 | Glioma Signaling z-score ([2]; 20 mg/kg/day): −0.816 | Gluconeogenesis I z-score ([2]; 20 mg/kg/day): −0.302 | Glutathione Redox Reactions I z-score ([2]; 20 mg/kg/day): −0.277 | Glycolysis I z-score ([2]; 20 mg/kg/day): 0 | Gα12/13 Signaling z-score ([2]; 20 mg/kg/day): −0.707 | Gαg Signaling z-score ([2]; 20 mg/kg/day): −0.822 | HGF Signaling z-score ([2]; 20 mg/kg/day): 0 | Hepatic Fibrosis Signaling Pathway z-score ([2]; 20 mg/kg/day): −3.181 | IGF-1 Signaling z-score ([2]; 20 mg/kg/day): −0.408 | IL-8 Signaling z-score ([2]; 20 mg/kg/day): −0.905 | Integrin Signaling z-score ([2]; 20 mg/kg/day): −1.342 | LPS/IL-1 Mediated Inhibition of RXR Function z-score ([2]; 20 mg/kg/day): 0.626 | Lymphotoxin β Receptor Signaling z-score ([2]; 20 mg/kg/day): −1.291 | Macropinocytosis Signaling z-score ([2]; 20 mg/kg/day): 0.243 | NF-κB Activation by Viruses z-score ([2]; 20 mg/kg/day): −0.816 | NF-κB Signaling z-score ([2]; 20 mg/kg/day): −1.313 | NRF2-mediated Oxidative Stress Response z-score ([2]; 20 mg/kg/day): −0.392 | Oxidative Phosphorylation z-score ([2]; 20 mg/kg/day): −0.283 | PDGF Signaling z-score ([2]; 20 mg/kg/day): −2.353 | PEDF Signaling z-score ([2]; 20 mg/kg/day): −1.043 | PI3K Signaling in B Lymphocytes z-score ([2]; 20 mg/kg/day): −1.333 | PI3K/AKT Signaling z-score ([2]; 20 mg/kg/day): −0.18 | PTEN Signaling z-score ([2]; 20 mg/kg/day): 1.029 | Paxillin Signaling z-score ([2]; 20 mg/kg/day): −0.626 | Relaxin Signaling z-score ([2]; 20 mg/kg/day): −0.853 | STAT3 Pathway z-score ([2]; 20 mg/kg/day): 0.192 | Sirtuin Signaling Pathway z-score ([2]; 20 mg/kg/day): 0.62 | Small Cell Lung Cancer Signaling z-score ([2]; 20 mg/kg/day): −1.886 | Sperm Motility z-score ([2]; 20 mg/kg/day): 1.633 | Sphingosine-1-phosphate Signaling z-score ([2]; 20 mg/kg/day): −0.73 | TCA Cycle II (Eukalyotic) z-score ([2]; 20 mg/kg/day): −0.535 | TNFR2 Signaling z-score ([2]; 20 mg/kg/day): 0 | Thrombin Signaling z-score ([2]; 20 mg/kg/day): −0.926 | Toll-like Receptor Signaling z-score ([2]; 20 mg/kg/day): −0.258 | Tryptophan Degradation III (Eukalyotic) z-score ([2]; 20 mg/kg/day): −1.265 | Xenobiotic Metabolism General Signaling Pathway z-score ([2]; 20 mg/kg/day): −1.581 | Acute Myeloid Leukemia Signaling z-score ([2]; 30 mg/kg/day): −1.134 | Acute Phase Response Signaling z-score ([2]; 30 mg/kg/day): −2.832 | Apelin Cardiac Fibroblast Signaling Pathway z-score ([2]; 30 mg/kg/day): 1.732 | CXCR4 Signaling z-score ([2]; 30 mg/kg/day): −2.214 | Cardiac Hypertrophy Signaling (Enhanced) z-score ([2]; 30 mg/kg/day): −6.236 | Folate Polyglutamylation z-score ([2]; 30 mg/kg/day): 1.342 | GM-CSF Signaling z-score ([2]; 30 mg/kg/day): −1.225 | GP6 Signaling Pathway z-score ([2]; 30 mg/kg/day): −4.938 | Glioblastoma Multiforme Signaling z-score ([2]; 30 mg/kg/day): −3.464 | Glioma Signaling z-score ([2]; 30 mg/kg/day): −2.353 | Gluconeogenesis I z-score ([2]; 30 mg/kg/day): 3.464 | Glutathione Redox Reactions I z-score ([2]; 30 mg/kg/day): 2.496 | Glycolysis I z-score ([2]; 30 mg/kg/day): 3.051 | Gα12/13 Signaling z-score ([2]; 30 mg/kg/day): −0.949 | Gαg Signaling z-score ([2]; 30 mg/kg/day): −2.16 | HGF Signaling z-score ([2]; 30 mg/kg/day): −3.182 | Hepatic Fibrosis Signaling Pathway z-score ([2]; 30 mg/kg/day): −5.058 | IGF-1 Signaling z-score ([2]; 30 mg/kg/day): −1.633 | IL-6 signaling ([2]; 30 mg/kg/day): reduced | IL-8 Signaling z-score ([2]; 30 mg/kg/day): −2.828 | Integrin Signaling z-score ([2]; 30 mg/kg/day): −3.311 | LPS/IL-1 Mediated Inhibition of RXR Function z-score ([2]; 30 mg/kg/day): −2.746 | Lymphotoxin β Receptor Signaling z-score ([2]; 30 mg/kg/day): −2.183 | Macropinocytosis Signaling z-score ([2]; 30 mg/kg/day): −2.828 | NF-κB Activation by Viruses z-score ([2]; 30 mg/kg/day): −3.9 | NF-κB Signaling z-score ([2]; 30 mg/kg/day): −4.636 | NF-κB signaling ([2]; 30 mg/kg/day): reduced | NRF2-mediated Oxidative Stress Response z-score ([2]; 30 mg/kg/day): 1.3 | Oxidative Phosphorylation z-score ([2]; 30 mg/kg/day): 7.02 | PDGF Signaling z-score ([2]; 30 mg/kg/day): −3.528 | PDGF signaling ([2]; 30 mg/kg/day): reduced | PEDF Signaling z-score ([2]; 30 mg/kg/day): −3.922 | PI3K Signaling in B Lymphocytes z-score ([2]; 30 mg/kg/day): −4.041 | PI3K/AKT Signaling z-score ([2]; 30 mg/kg/day): −1.947 | PTEN Signaling z-score ([2]; 30 mg/kg/day): 2.214 | Paxillin Signaling z-score ([2]; 30 mg/kg/day): −2.268 | Relaxin Signaling z-score ([2]; 30 mg/kg/day): −2.449 | STAT3 Pathway z-score ([2]; 30 mg/kg/day): −2.556 | Sirtuin Signaling Pathway z-score ([2]; 30 mg/kg/day): −1.254 | Small Cell Lung Cancer Signaling z-score ([2]; 30 mg/kg/day): −2.236 | Sperm Motility z-score ([2]; 30 mg/kg/day): −2.263 | Sphingosine-1-phosphate Signaling z-score ([2]; 30 mg/kg/day): −1.808 | TCA Cycle II (Eukalyotic) z-score ([2]; 30 mg/kg/day): 3.207 | TNFR2 Signaling z-score ([2]; 30 mg/kg/day): −1.291 | Thrombin Signaling z-score ([2]; 30 mg/kg/day): −2.828 | Toll-like Receptor Signaling z-score ([2]; 30 mg/kg/day): −2.982 | Tryptophan Degradation III (Eukalyotic) z-score ([2]; 30 mg/kg/day): 3.742 | Xenobiotic Metabolism General Signaling Pathway z-score ([2]; 30 mg/kg/day): −0.152
